From patent US9326506B2, “Preparation method, agricultural composition and applications of natural brassinolide analogs” (CHENGDU NEWSUN CROPSCIENCE CO., LTD, priority 2012, dated 2016)

Test system: rice
Test: Low temperature assay on rice seedlings
Format: in vivo
In short: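 Nine-day-old etiolated rice seedlings (grown on water at 30 °C±2 °C, dark) immersed in brassinolide analogues at 1–0.0001 mg/L or pure water, held at 1–5 °C for 24 hr. Plant height, leaf area, root weight read at 3, 6, 9, 12 days; leaf and tiller number at 12 days.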

## CC(C)[C@H](C)[C@@H](O)[C@H](O)[C@@H](C)[C@H]1CCC2C3COC(=O)C4C[C@H](O)[C@H](O)C[C@]4(C)C3CC[C@@]21C (stereo partly shown) [BR1]
0.0001 mg/l, 1 °C, 3 days
  Area of leaf: 10 cm^2
  Height: 7.1 cm
  Weight of root: 2.8 g
0.0001 mg/l, 1 °C, 6 days
  Area of leaf: 11.2 cm^2
  Height: 7.2 cm
  Weight of root: 3.1 g
0.0001 mg/l, 1 °C, 9 days
  Area of leaf: 12.4 cm^2
  Height: 7.3 cm
  Weight of root: 3.4 g
0.0001 mg/l, 1 °C, 12 days
  Area of leaf: 13 cm^2
  Height: 7.4 cm
  Number of leaf: 3
  Number of tiller: 3
  Weight of root: 3.9 g
0.0001 mg/l, 2 °C, 3 days
  Area of leaf: 10.2 cm^2
  Height: 7.1 cm
  Weight of root: 2.8 g
0.0001 mg/l, 2 °C, 6 days
  Area of leaf: 11.7 cm^2
  Height: 7.2 cm
  Weight of root: 3.0 g
0.0001 mg/l, 2 °C, 9 days
  Area of leaf: 12.6 cm^2
  Height: 7.3 cm
  Weight of root: 3.2 g
0.0001 mg/l, 2 °C, 12 days
  Area of leaf: 13 cm^2
  Height: 7.5 cm
  Number of leaf: 3
  Number of tiller: 3
  Weight of root: 3.9 g
0.0001 mg/l, 3 °C, 3 days
  Area of leaf: 10.4 cm^2
  Height: 7.1 cm
  Weight of root: 2.5 g
0.0001 mg/l, 3 °C, 6 days
  Area of leaf: 12 cm^2
  Height: 7.2 cm
  Weight of root: 2.6 g
0.0001 mg/l, 3 °C, 9 days
  Area of leaf: 12.6 cm^2
  Height: 7.5 cm
  Weight of root: 2.9 g
0.0001 mg/l, 3 °C, 12 days
  Area of leaf: 13.2 cm^2
  Height: 7.6 cm
  Number of leaf: 3
  Number of tiller: 2
  Weight of root: 2.9 g
0.0001 mg/l, 4 °C, 3 days
  Area of leaf: 10.6 cm^2
  Height: 7.1 cm
  Weight of root: 2.5 g
0.0001 mg/l, 4 °C, 6 days
  Area of leaf: 12.2 cm^2
  Height: 7.3 cm
  Weight of root: 2.6 g
0.0001 mg/l, 4 °C, 9 days
  Area of leaf: 13 cm^2
  Height: 7.5 cm
  Weight of root: 2.9 g
0.0001 mg/l, 4 °C, 12 days
  Area of leaf: 13.4 cm^2
  Height: 7.7 cm
  Number of leaf: 3
  Number of tiller: 2
  Weight of root: 2.9 g
0.0001 mg/l, 5 °C, 3 days
  Area of leaf: 10.6 cm^2
  Height: 7.2 cm
  Weight of root: 2.6 g
0.0001 mg/l, 5 °C, 6 days
  Area of leaf: 12.4 cm^2
  Height: 7.4 cm
  Weight of root: 2.8 g
0.0001 mg/l, 5 °C, 9 days
  Area of leaf: 13.6 cm^2
  Height: 7.5 cm
  Weight of root: 2.9 g
0.0001 mg/l, 5 °C, 12 days
  Area of leaf: 14 cm^2
  Height: 7.8 cm
  Number of leaf: 3
  Number of tiller: 2
  Weight of root: 3.0 g
0.001 mg/l, 1 °C, 3 days
  Area of leaf: 10.1 cm^2
  Height: 6.9 cm
  Weight of root: 2.8 g
0.001 mg/l, 1 °C, 6 days
  Area of leaf: 11.3 cm^2
  Height: 7.1 cm
  Weight of root: 3.1 g
0.001 mg/l, 1 °C, 9 days
  Area of leaf: 12.6 cm^2
  Height: 7.3 cm
  Weight of root: 3.4 g
0.001 mg/l, 1 °C, 12 days
  Area of leaf: 13 cm^2
  Height: 7.3 cm
  Number of leaf: 3
  Number of tiller: 3
  Weight of root: 3.9 g
0.001 mg/l, 2 °C, 3 days
  Area of leaf: 10.3 cm^2
  Height: 6.9 cm
  Weight of root: 2.8 g
0.001 mg/l, 2 °C, 6 days
  Area of leaf: 11.8 cm^2
  Height: 7.1 cm
  Weight of root: 3.0 g
0.001 mg/l, 2 °C, 9 days
  Area of leaf: 12.6 cm^2
  Height: 7.2 cm
  Weight of root: 3.2 g
0.001 mg/l, 2 °C, 12 days
  Area of leaf: 13.1 cm^2
  Height: 7.3 cm
  Number of leaf: 3
  Number of tiller: 3
  Weight of root: 3.9 g
0.001 mg/l, 3 °C, 3 days
  Area of leaf: 10.4 cm^2
  Height: 7 cm
  Weight of root: 2.5 g
0.001 mg/l, 3 °C, 6 days
  Area of leaf: 12 cm^2
  Height: 7.1 cm
  Weight of root: 2.6 g
0.001 mg/l, 3 °C, 9 days
  Area of leaf: 12.6 cm^2
  Height: 7.4 cm
  Weight of root: 2.9 g
0.001 mg/l, 3 °C, 12 days
  Area of leaf: 13.2 cm^2
  Height: 7.3 cm
  Number of leaf: 3
  Number of tiller: 2
  Weight of root: 2.9 g
0.001 mg/l, 4 °C, 3 days
  Area of leaf: 10.6 cm^2
  Height: 7.1 cm
  Weight of root: 2.5 g
0.001 mg/l, 4 °C, 6 days
  Area of leaf: 12.4 cm^2
  Height: 7.3 cm
  Weight of root: 2.6 g
0.001 mg/l, 4 °C, 9 days
  Area of leaf: 13.1 cm^2
  Height: 7.5 cm
  Weight of root: 2.9 g
0.001 mg/l, 4 °C, 12 days
  Area of leaf: 13.5 cm^2
  Height: 7.7 cm
  Number of leaf: 3
  Number of tiller: 2
  Weight of root: 2.9 g
0.001 mg/l, 5 °C, 3 days
  Area of leaf: 10.7 cm^2
  Height: 7.5 cm
  Weight of root: 2.8 g
0.001 mg/l, 5 °C, 6 days
  Area of leaf: 14.6 cm^2
  Height: 7.7 cm
  Weight of root: 2.9 g
0.001 mg/l, 5 °C, 9 days
  Area of leaf: 16.4 cm^2
  Height: 7.9 cm
  Weight of root: 3.0 g
0.001 mg/l, 5 °C, 12 days
  Area of leaf: 17 cm^2
  Height: 8.2 cm
  Number of leaf: 3
  Number of tiller: 3
  Weight of root: 3.7 g
0.01 mg/l, 1 °C, 3 days
  Area of leaf: 10.1 cm^2
  Height: 6.9 cm
  Weight of root: 2.8 g
0.01 mg/l, 1 °C, 6 days
  Area of leaf: 11.9 cm^2
  Height: 7.2 cm
  Weight of root: 3.0 g
0.01 mg/l, 1 °C, 9 days
  Area of leaf: 12.9 cm^2
  Height: 7.3 cm
  Weight of root: 3.4 g
0.01 mg/l, 1 °C, 12 days
  Area of leaf: 13.6 cm^2
  Height: 7.4 cm
  Number of leaf: 3
  Number of tiller: 3
  Weight of root: 3.9 g
0.01 mg/l, 2 °C, 3 days
  Area of leaf: 10.3 cm^2
  Height: 6.9 cm
  Weight of root: 2.8 g
0.01 mg/l, 2 °C, 6 days
  Area of leaf: 11.8 cm^2
  Height: 7.2 cm
  Weight of root: 3.0 g
0.01 mg/l, 2 °C, 9 days
  Area of leaf: 12.8 cm^2
  Height: 7.3 cm
  Weight of root: 3.1 g
0.01 mg/l, 2 °C, 12 days
  Area of leaf: 13.4 cm^2
  Height: 7.5 cm
  Number of leaf: 3
  Number of tiller: 3
  Weight of root: 3.2 g
0.01 mg/l, 3 °C, 3 days
  Area of leaf: 10.4 cm^2
  Height: 7 cm
  Weight of root: 2.5 g
0.01 mg/l, 3 °C, 6 days
  Area of leaf: 12 cm^2
  Height: 7.2 cm
  Weight of root: 2.6 g
0.01 mg/l, 3 °C, 9 days
  Area of leaf: 12.6 cm^2
